Test results taken from patent US12594349B2, “Compositions and methods for the targeting of PCSK9” (Scribe Therapeutics Inc., priority 2022, dated 2026).
Read-outs that look alike come from different tables or passages of the source.

Columns and labels:
[1] = system: Huh7 cells; assay: RNA-seq, differentially regulated off-target genes in transfected Huh7 cells; type: cell-based, human; details: Huh7, 6 and 26 days post-transfection, |log2FC|>2 and adjusted p-value<0.001
From the text: (§1) Seeded Huh7 cells were transfected with mRNA encoding a catalytically-active CasX 676, dXR1, or LTRP5-ADD-ZIM3 and a gRNA with scaffold 316 and a spacer targeting the PCSK9 locus. Cells were harvested at 6 and 26 days post-transfection and subsequently lysed and stored in DNA/RNA Shield (Zymo Research). As an additional control, untreated, naïve cells were also harvested. The collected samples were subjected to gDNA/RNA extraction using the Quick-DNA/RNA Miniprep Plus kit (Zymo Research). RNA samples were used for total RNA sequencing (RNA-seq), which was performed by a third-party. Raw FASTQ files were received and processed with FASTQC, and adapters were trimmed using Trim Galore. Transcript expression was then quantified against the hg38 genome using Salmon to generate normalized counts for each gene (transcripts per million, or TPM). Differential expression analysis was performed using DESeq2. Genes with fewer than 10 counts in all samples were omitted from analysis, and all pairwise comparisons (e.g., differential gene expression analyses between untreated and treated conditions at the two individual timepoints) were done with significance thresholds of |log 2FC|>2 and adjusted p-value<0.001.

[2] = system: human PCSK9 locus; assay: Secreted PCSK9 by ELISA in Huh7 cells transfected with mRNA and gRNA; type: cell-based; details: for Secreted PCSK9 / Percent reduction in PCSK9 secretion / Average percent reduction in PCSK9 secretion: Huh7 cells; for Secreted PCSK9: 6 days post-transfection, normalized to total cell count; for Percent reduction in PCSK9 secretion / Average percent reduction in PCSK9 secretion: LTRP5-ADD-ZIM3 mRNA; for Percent reduction in PCSK9 secretion: day 6, relative to non-targeting gRNA control; for Average percent reduction in PCSK9 secretion: day 6, averaged from the two doses
Procedure: To assess PCSK9 secretion, seeded Huh7 cells were transfected with mRNA encoding a catalytically-active CasX 676, dXR1, or LTRP5-ADD-ZIM3 and a gRNA with scaffold 316 and spacer targeting either the B2M or PCSK9 locus. Media supernatant was harvested at 6, 18, 36, and 87 days post-transfection to assess level of PCSK9 secretion by ELISA. Levels of PCSK9 secretion were normalized to total cell count. As an additional control, PCSK9 secretion was also measured in the media supernatant harvested from wells containing untreated, naïve cells.
The following three human hepatocyte cancer cell lines were used in this experiment: HepG2 cells, Hep3B cells, and Huh7 cells. ˜15,000 cells of each cell line were seeded per well; the next day, seeded cells were transfected with mRNA encoding a catalytically-active CasX 676, dXR1, or LTRP5-ADD-ZIM3 and a gRNA with scaffold 316 and spacer targeting either the B2M or PCSK9 locus (see Table 23 for specific spacers and sequences). Media supernatant was harvested at 4 days post-transfection to assess level of PCSK9 secretion by ELISA, and levels of PCSK9 secretion were normalized to total cell count and illustrated in FIGS. 11A-11C. Culturing of treated Huh7 cells continued, and media supernatant was harvested at 14 and 27 days post-transfection for measuring PCSK9 secretion by ELISA. As an additional experimental control, PCSK9 secretion was also measured in the media supernatant harvested from wells containing untreated, naïve cells.
To assess PCSK9 secretion, seeded Huh7 cells were co-transfected with mRNA encoding for LTRP5-ADD-ZIM3 and a gRNA with scaffold 316 and spacer targeting the PCSK9 locus using Lipofectamine™ 3000. Two doses of total RNA input at a 2:1 mass ratio of mRNA to gRNA were used for screening: 50 ng mRNA:25 ng gRNA and 25 ng mRNA:12.5 ng gRNA. Media supernatant was harvested at 6 days post-transfection to assess level of PCSK9 secretion by ELISA (Table 74). Levels of PCSK9 secretion were normalized to total cell count. As an additional control, PCSK9 secretion was also measured in the media supernatant harvested from cells transfected with mRNA encoding for mScarlet.

[3] = system: PCSK9 locus; assay: RNA-seq, normalized PCSK9 read counts in transfected Huh7 cells; type: cell-based, human; details: Huh7, mRNA + gRNA scaffold 316 v1, 6 and 26 days post-transfection
From the text: as §1

[4] = system: HBEGF; type: cell-based, human; details: for log 2(fold change) of abundance before and after selection: HEK293T, dCasX491 fusion, scaffold 174 spacer 34.28, 2 ng/mL diphtheria toxin for 48 hours
[5] = system: B2M locus; type: cell-based; details: for B2M repression compared with LTRP5-ZIM3: HEK293T, LTRP5 constructs without ADD domain, scaffold 316 spacer 7.165, days 6/7 to 26/27; for % HLA-negative cells (mean): HEK293T cells, gRNA with B2M-targeting spacer 7.37
[6] = LTRP5-ADD-ZIM3 mRNA + gRNA scaffold 316, 25 ng mRNA:12.5 ng gRNA
[7] = LTRP5-ADD-ZIM3 mRNA + gRNA scaffold 316, 50 ng mRNA:25 ng gRNA

TG-06-133 (guide AUGGUAGGCACAAGCUCAGC; listed as RNA, chemistry not given here)
differentially regulated off-target genes [1]: lowest number of differentially regulated off-target genes
Secreted PCSK9 [2, 6]: 42.13 ng/mL
Secreted PCSK9 [2, 7]: 29.45 ng/mL
Percent reduction in PCSK9 secretion ([2]; 25 ng mRNA:12.5 ng gRNA): 40.86%
Percent reduction in PCSK9 secretion ([2]; 50 ng mRNA:25 ng gRNA): 64.21%
Average percent reduction in PCSK9 secretion [2]: 52.53%
PCSK9 expression by RNA-seq [3]: durably repress PCSK9 expression

TG-06-154 (guide AGGGUGUGGGUGCUUGACGC; listed as RNA, chemistry not given here)
differentially regulated off-target genes [1]: higher number of differentially regulated off-target genes
Secreted PCSK9 [2, 6]: 24.48 ng/mL
Secreted PCSK9 [2, 7]: 6.87 ng/mL
Percent reduction in PCSK9 secretion ([2]; 25 ng mRNA:12.5 ng gRNA): 65.64%
Percent reduction in PCSK9 secretion ([2]; 50 ng mRNA:25 ng gRNA): 91.65%
Average percent reduction in PCSK9 secretion [2]: 78.64%
PCSK9 expression by RNA-seq [3]: durably repress PCSK9 expression

TG-06-169 (guide CGGGGUUGGGAGACCCGGAG; listed as RNA, chemistry not given here)
Secreted PCSK9 [2, 6]: 62.55 ng/mL
Secreted PCSK9 [2, 7]: 66.39 ng/mL
Percent reduction in PCSK9 secretion ([2]; 25 ng mRNA:12.5 ng gRNA): 12.2%
Percent reduction in PCSK9 secretion ([2]; 50 ng mRNA:25 ng gRNA): 19.3%
Average percent reduction in PCSK9 secretion [2]: 15.75%

TG-06-170 (guide UCGGCCUCCGGGUCUCCCAA; listed as RNA, chemistry not given here)
Secreted PCSK9 [2, 6]: 72.96 ng/mL
Secreted PCSK9 [2, 7]: 64.19 ng/mL
Percent reduction in PCSK9 secretion ([2]; 25 ng mRNA:12.5 ng gRNA): 2.41%
Percent reduction in PCSK9 secretion ([2]; 50 ng mRNA:25 ng gRNA): 21.98%
Average percent reduction in PCSK9 secretion [2]: 9.79%

TG-06-171 (guide CAGUACGUUCCAGGCAUUCA; listed as RNA, chemistry not given here)
Secreted PCSK9 [2, 6]: 55.95 ng/mL
Secreted PCSK9 [2, 7]: 52.41 ng/mL
Percent reduction in PCSK9 secretion ([2]; 25 ng mRNA:12.5 ng gRNA): 21.46%
Percent reduction in PCSK9 secretion ([2]; 50 ng mRNA:25 ng gRNA): 36.3%
Average percent reduction in PCSK9 secretion [2]: 28.88%

TG-06-172 (guide GCUGAAACAGAUGGAAUACU; listed as RNA, chemistry not given here)
Secreted PCSK9 [2, 6]: 59.31 ng/mL
Secreted PCSK9 [2, 7]: 44.44 ng/mL
Percent reduction in PCSK9 secretion ([2]; 25 ng mRNA:12.5 ng gRNA): 16.75%
Percent reduction in PCSK9 secretion ([2]; 50 ng mRNA:25 ng gRNA): 45.99%
Average percent reduction in PCSK9 secretion [2]: 31.37%

TG-06-342 (guide AAUUACAGGCAACAGGAAGG; listed as RNA, chemistry not given here)
Percent reduction in PCSK9 secretion ([2]; 25 ng mRNA:12.5 ng gRNA): 5.6%

TG-06-344 (guide CAGUUUCUGCCUCGCCGCGG; listed as RNA, chemistry not given here)
Percent reduction in PCSK9 secretion ([2]; 50 ng mRNA:25 ng gRNA): 0.01%

TG-06-352 (guide UCCCUCACCAAUUACCCCUC; listed as RNA, chemistry not given here)
secreted PCSK9 repression compared with spacer 6.1 paired with CasX 676 ([2]; Huh7, LTRP5-ADD-ZIM3 mRNA + gRNA scaffold 316, through day 36): effective repression

TG-06-1046 (guide UCUCUUACAUGGGGGGAAAC; listed as RNA, chemistry not given here)
Percent reduction in PCSK9 secretion ([2]; 50 ng mRNA:25 ng gRNA): 4.1%

ZIM3: human ZIM3 KRAB domain, SEQ ID NO: 128 [reference compound]
log 2(fold change) of abundance before and after selection [4]: 1.7787

standard ZNF10: human ZNF10 KRAB domain, SEQ ID NO: 129 [reference compound]
log 2(fold change) of abundance before and after selection [4]: 1.3637

B1: DOMAIN_26749: repressor domain derived from the king cobra, Ophiophagus hannah; SEQ ID NO: 135 (protein)
chain: STPVTFEDVVVYFTAAEWVHLTNWQRDFYQAVMMETYELVASVAGDGVPMAEDEEGGVERPVWQYIPRGKRRRKTPQPRAD
modifications: Ophiophagus hannah
B2M repression compared with LTRP5-ZIM3 [5]: most effective
log 2(fold change) of abundance before and after selection [4]: highest log 2 (fold change)

B2: DOMAIN_29304: one of the top nine most effective repressor domains (protein, listed as Peromyscus maniculatus)
chain: VTYNDVHVDITQEEWALMDPSQRNLYKDVMVETYMNLTAIGYNWENLEVEEPCQNPLKHGRHERPHTGEKPYEYNQCGKAFAQP
B2M repression compared with LTRP5-ZIM3 [5]: most effective
Log2 (fold change) ([4]; fold change in abundance of each domain in the library before and after diphtheria toxin selection, dXR repression of the HBEGF gene, criteria p-value <0.01 and log2(fold change) >2): 4.0496

B3: dCasX491: catalytically-dead CasX variant, SEQ ID NO: 4 (protein)
chain: QEIKRINKIRRRLVKDSNTKKAGKTGPMKTLLVRVMTPDLRERLENLRKKPENIPQPISNTSRANLNKLLTDYTEMKKAILHVYWEEFQKDPVGLMSRVAQPASKKIDQNKLKPEMDEKGNLTTAGFACSQCGQPLFVYKLEQVSEKGKAYTNYFGRCNVAEHEKLILLAQLKPEKDSDEAVTYSLGKFGQRALDFYSIHVTKESTHPVKPLAQIAGNRYASGPVGKALSDACMGTIASFLSKYQDIIIEHQKVVKGNQKRLESLRELAGKENLEYPSVTLPPQPHTKEGVDAYNEVIARVRMWVNLNLWQKLKLSRDDAKPLLRLKGFPSFPLVERQANEVDWWDMVCNVKKLINEKKEDGKVFWQNLAGYKRQEALRPYLSSEEDRKKGKKFARYQLGDLLLHLEKKHGEDWGKVYDEAWERIDKKVEGLSKHIKLEEERRSEDAQSKAALTDWLRAKASFVIEGLKEADKDEFCRCELKLQKWYGDLRGKPFAIEAENSILDISGFSKQYNCAFIWQKDGVKKLNLYLIINYFKGGKLRFKKIKPEAFEANRFYTVINKKSGEIVPMEVNFNFDDPNLIILPLAFGKRQGREFIWNDLLSLETGSLKLANGRVIEKTLYNRRTRQDEPALFVALTFERREVLDSSNIKPMNLIGVARGENIPAVIALTDPEGCPLSRFKDSLGNPTHILRIGESYKEKQRTIQAKKEVEQRRAGGYSRKYASKAKNLADDMVRNTARDLLYYAVTQDAMLIFANLSRGFGRQGKRTFMAERQYTRMEDWLTAKLAYEGLSKTYLSKTLAQYTSKTCSNCGFTITSADYDRVLEKLKKTATGWMTTINGKELKVEGQITYYNRYKRQNVVKDLSVELDRLSEESVNNDISSWTKGRSGEALSLLKKRFSHRPVQEKFVCLNCGFETHAAEQAALNIARSWLFLRSQEYKKYQTNKTTGNTDKRAFVETWQSFYRKKLKEVWKPAV
% HLA-negative cells (mean) ([5]; 50 days post-transfection): 0.49%
% HLA-negative cells (mean) ([5]; 73 days post-transfection): 0.83%
